Experimental data as given in patent US20230391824A1, “RATIONALE, DESIGN, SYNTHESIS AND VALIDATION OF A SMALL MOLECULE ANTICANCER AGENT” (priority 2021, published 2023).

Tested on: YP-MEL NCM tumor
Test: YP-MEL NCM tumor xenograft in SCID mice
Type: in vivo
Conditions: female SCID mice, 4 mg/kg I.P, every 2 days
Protocol: FIG. 13A&B: Female SCID YP-MEL NCM tumor bearing mice treated with 4 mg/kg Compound of formula (I) (P1 version) intraperitoneally (I.P). […] (B) Tumor areas were measured with a Vernier caliper (prior to each treatment cycle). Animals were euthanized when the control (0.1% DMSO:PBS) treated mice reached the defined endpoint of 225 mm^2. Data representative of at least 5 independent experiments.
All animal procedures were carried out in accordance with the guidelines of the Canadian Council on Animal Care and the NIH guidelines on the care and use of laboratory animals. All protocols were reviewed and approved by the Animal Care Committee of the University of Calgary (Protocol approval number: AC21-0147). Six- to eight-week-old female or male CB17 severe combined immunodeficiency (SCID) mice (Charles River Laboratories, Saint-Constant, QC, Canada) were subcutaneously injected in the right flank with 3×10^6 YP-MEL or NT-2 cells suspended in 0.1 mL sterile PBS. After tumor injection, animals with detectable tumor growth of at least 50 mm^2 were randomized into groups. […] Animals and respective cages were monitored for food and bedding supplies daily; doses were injected every 2 days and tumor areas were measured with a Vernier caliper (prior to each treatment cycle). […]

CC[C@H](C)[C@H](NC(=O)[C@H](Cc1ncc[nH]1)NC(=O)c1cccc(C(N)=O)c1)C(=O)Nc1ccc(O)c(-c2nc3ccccc3s2)c1 [Compound P1]
growth of NCM tumors: significantly reduced the growth
